From paper PMC6274539, “Photoactivatable Caged Prodrugs of VEGFR-2 Kinase Inhibitors” (Molecules, 2016)

Legend:
Assay type in all cases: biochemical
VEGFR-2 = target: T1, VEGFR-2 (Homo sapiens, UniProt P35968); assay: radiometric 33PanQinase VEGFR-2 kinase assay (ProQinase); settings: 10 semi-log concentrations, single samples, 1% DMSO
T1 construct: determined using VEGFR-2 protein kinase by a radiometric ^33PanQinase® assay; purchased ProQinase (Freiburg, Germany)
Description: As predicted by molecular modeling, insertion of the protecting group DMNB should diminish the inhibitory activity both of the maleimide 1 and the carbazole 3. […] The IC50 values towards VEGFR-2 were determined (Table 1).
The VEGFR-2 IC50 profile for 1, 3, 4 and 5 was determined using VEGFR-2 protein kinase by a radiometric ^33PanQinase® assay. […] Prior to testing, the compounds were dissolved to prepare 1 × 10^−2 M stock solutions in 100% DMSO. The final DMSO concentration in the reaction cocktails was 1% in all cases. Analyses were performed by ProQinase (Freiburg, Germany).

VEG-FR = assay: kinase profiling, radioactive filter binding assay; settings: 0.1 µM compound, assay duplicates
Description: (§1) The used method was a radioactive filter binding assay using ^33P ATP, for details see references. The substances were dissolved in DMSO at tested concentration of 0.1 µM. The mean percentage residual kinase activity and standard deviations of assay duplicates were determined. Analyses were performed by the International Center for Kinase Profiling at the University of Dundee, UK.

DYRK3 = DYRK3 (Homo sapiens, UniProt O43781); assay: kinase profiling, radioactive filter binding assay; settings: 0.1 µM compound, assay duplicates; read-out: residual activity of DYRK3, mean percentage activity
Description: as §1

p38g MAPK = p38g MAPK (Homo sapiens, UniProt P53778); assay: kinase profiling, radioactive filter binding assay; settings: 0.1 µM compound, assay duplicates; read-out: residual activity of p38g MAPK, mean percentage activity
Description: as §1

EPH A2 = EPH A2 (Homo sapiens, UniProt P29317); assay: kinase profiling, radioactive filter binding assay; settings: 0.1 µM compound, assay duplicates; read-out: residual activity of EPH A2, mean percentage activity
Description: as §1

p38a MAPK = p38a MAPK (Homo sapiens, UniProt Q16539); assay: kinase profiling, radioactive filter binding assay; settings: 0.1 µM compound, assay duplicates; read-out: residual activity of p38a MAPK, mean percentage activity
Description: as §1

HIPK2 = HIPK2 (Homo sapiens, UniProt Q9H2X6); assay: kinase profiling, radioactive filter binding assay; settings: 0.1 µM compound, assay duplicates; read-out: residual activity of HIPK2, mean percentage activity
Description: as §1

MARK3 = MARK3 (Homo sapiens, UniProt P27448); assay: kinase profiling, radioactive filter binding assay; settings: 0.1 µM compound, assay duplicates; read-out: residual activity of MARK3, mean percentage activity
Description: as §1

DYRK1A = DYRK1A (Homo sapiens, UniProt Q13627); assay: kinase profiling, radioactive filter binding assay; settings: 0.1 µM compound, assay duplicates; read-out: residual activity of DYRK1A, mean percentage activity
Description: as §1

PKA = PKA (Homo sapiens, UniProt P17612); assay: kinase profiling, radioactive filter binding assay; settings: 0.1 µM compound, assay duplicates; read-out: residual activity of PKA, mean percentage activity
Description: as §1

IKKb = IKKb (Homo sapiens, UniProt O14920); assay: kinase profiling, radioactive filter binding assay; settings: 0.1 µM compound, assay duplicates; read-out: residual activity of IKKb, mean percentage activity
Description: as §1

YES1 = YES1 (Homo sapiens, UniProt P07947); assay: kinase profiling, radioactive filter binding assay; settings: 0.1 µM compound, assay duplicates; read-out: residual activity of YES1, mean percentage activity
Description: as §1

IGF1-R = IGF1-R (Homo sapiens, UniProt P08069); assay: kinase profiling, radioactive filter binding assay; settings: 0.1 µM compound, assay duplicates; read-out: residual activity of IGF1-R, mean percentage activity
Description: as §1

p38s MAPK = p38s MAPK (Homo sapiens, UniProt O15264); assay: kinase profiling, radioactive filter binding assay; settings: 0.1 µM compound, assay duplicates; read-out: residual activity of p38s MAPK, mean percentage activity
Description: as §1

CSK = CSK (Homo sapiens, UniProt P41240); assay: kinase profiling, radioactive filter binding assay; settings: 0.1 µM compound, assay duplicates; read-out: residual activity of CSK, mean percentage activity
Description: as §1

PAK4 = PAK4 (Homo sapiens, UniProt O96013); assay: kinase profiling, radioactive filter binding assay; settings: 0.1 µM compound, assay duplicates; read-out: residual activity of PAK4, mean percentage activity
Description: as §1

Src = Src (Homo sapiens, UniProt P12931); assay: kinase profiling, radioactive filter binding assay; settings: 0.1 µM compound, assay duplicates; read-out: residual activity of Src, mean percentage activity
Description: as §1

PIM1 = PIM1 (Homo sapiens, UniProt P11309); assay: kinase profiling, radioactive filter binding assay; settings: 0.1 µM compound, assay duplicates; read-out: residual activity of PIM1, mean percentage activity
Description: as §1

PLK1 = PLK1 (Homo sapiens, UniProt P53350); assay: kinase profiling, radioactive filter binding assay; settings: 0.1 µM compound, assay duplicates; read-out: residual activity of PLK1, mean percentage activity
Description: as §1

PHK = assay: kinase profiling, radioactive filter binding assay; settings: 0.1 µM compound, assay duplicates
Description: as §1

CAMK1 = CAMK1 (Homo sapiens, UniProt Q14012); assay: kinase profiling, radioactive filter binding assay; settings: 0.1 µM compound, assay duplicates; read-out: residual activity of CAMK1, mean percentage activity
Description: as §1

JNK2 = JNK2 (Homo sapiens, UniProt P45984); assay: kinase profiling, radioactive filter binding assay; settings: 0.1 µM compound, assay duplicates; read-out: residual activity of JNK2, mean percentage activity
Description: as §1

RSK2 = RSK2 (Homo sapiens, UniProt P51812); assay: kinase profiling, radioactive filter binding assay; settings: 0.1 µM compound, assay duplicates; read-out: residual activity of RSK2, mean percentage activity
Description: as §1

MNK1 = MNK1 (Homo sapiens, UniProt Q9BUB5); assay: kinase profiling, radioactive filter binding assay; settings: 0.1 µM compound, assay duplicates; read-out: residual activity of MNK1, mean percentage activity
Description: as §1

MSK1 = MSK1 (Homo sapiens, UniProt O75582); assay: kinase profiling, radioactive filter binding assay; settings: 0.1 µM compound, assay duplicates; read-out: residual activity of MSK1, mean percentage activity
Description: as §1

MKK1 = MKK1 (Homo sapiens, UniProt Q02750); assay: kinase profiling, radioactive filter binding assay; settings: 0.1 µM compound, assay duplicates; read-out: residual activity of MKK1, mean percentage activity
Description: as §1

PLK1, sequence (P53350 whole entry): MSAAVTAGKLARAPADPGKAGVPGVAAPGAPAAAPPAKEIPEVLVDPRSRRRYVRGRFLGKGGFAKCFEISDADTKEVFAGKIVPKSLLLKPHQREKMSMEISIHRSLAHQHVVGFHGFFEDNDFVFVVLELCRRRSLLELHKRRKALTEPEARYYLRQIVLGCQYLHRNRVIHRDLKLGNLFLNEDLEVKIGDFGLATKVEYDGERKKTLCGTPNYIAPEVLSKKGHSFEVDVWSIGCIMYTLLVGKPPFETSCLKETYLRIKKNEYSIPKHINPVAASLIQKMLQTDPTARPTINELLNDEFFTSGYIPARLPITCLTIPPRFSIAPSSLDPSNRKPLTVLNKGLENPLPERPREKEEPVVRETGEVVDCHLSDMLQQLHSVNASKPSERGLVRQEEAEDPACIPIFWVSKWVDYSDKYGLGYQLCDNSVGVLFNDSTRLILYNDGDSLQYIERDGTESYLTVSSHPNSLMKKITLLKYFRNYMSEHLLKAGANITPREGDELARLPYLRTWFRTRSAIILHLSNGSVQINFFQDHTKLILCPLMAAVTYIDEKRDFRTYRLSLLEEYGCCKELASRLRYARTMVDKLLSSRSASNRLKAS
MNK1, sequence (Q9BUB5 whole entry): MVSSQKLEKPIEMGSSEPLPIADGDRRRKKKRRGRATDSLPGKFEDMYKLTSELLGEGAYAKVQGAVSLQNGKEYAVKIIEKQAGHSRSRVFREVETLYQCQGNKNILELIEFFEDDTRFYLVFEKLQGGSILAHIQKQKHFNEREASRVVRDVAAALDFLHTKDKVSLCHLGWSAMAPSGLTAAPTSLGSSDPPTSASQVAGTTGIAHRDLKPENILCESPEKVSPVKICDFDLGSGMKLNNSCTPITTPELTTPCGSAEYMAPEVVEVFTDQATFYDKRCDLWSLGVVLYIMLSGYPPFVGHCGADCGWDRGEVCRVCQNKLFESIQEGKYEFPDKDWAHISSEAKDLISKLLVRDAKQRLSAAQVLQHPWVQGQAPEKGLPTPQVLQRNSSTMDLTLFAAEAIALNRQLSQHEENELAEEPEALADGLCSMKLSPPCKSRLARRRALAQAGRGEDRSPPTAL
RSK2, sequence (P51812 whole entry): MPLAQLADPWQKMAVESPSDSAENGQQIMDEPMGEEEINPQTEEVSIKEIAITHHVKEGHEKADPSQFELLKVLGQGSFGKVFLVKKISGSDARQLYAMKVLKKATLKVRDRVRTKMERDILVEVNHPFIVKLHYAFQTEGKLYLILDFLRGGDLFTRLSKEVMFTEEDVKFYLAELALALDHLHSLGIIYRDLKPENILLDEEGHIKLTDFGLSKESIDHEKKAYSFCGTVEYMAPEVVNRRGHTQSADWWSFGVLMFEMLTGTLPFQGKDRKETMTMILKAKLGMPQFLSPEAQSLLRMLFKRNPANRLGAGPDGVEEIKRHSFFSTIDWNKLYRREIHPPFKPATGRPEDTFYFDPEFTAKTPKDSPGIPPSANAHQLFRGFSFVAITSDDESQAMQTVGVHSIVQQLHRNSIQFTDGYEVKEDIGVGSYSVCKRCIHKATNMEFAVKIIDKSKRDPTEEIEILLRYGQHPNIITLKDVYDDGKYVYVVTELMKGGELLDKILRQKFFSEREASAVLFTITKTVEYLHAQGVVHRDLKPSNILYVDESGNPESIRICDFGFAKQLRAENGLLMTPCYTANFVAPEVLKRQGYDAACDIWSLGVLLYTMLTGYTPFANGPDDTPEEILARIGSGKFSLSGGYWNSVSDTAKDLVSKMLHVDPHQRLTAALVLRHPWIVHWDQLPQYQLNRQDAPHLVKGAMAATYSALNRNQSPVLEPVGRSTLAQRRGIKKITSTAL
CAMK1, sequence (Q14012 whole entry): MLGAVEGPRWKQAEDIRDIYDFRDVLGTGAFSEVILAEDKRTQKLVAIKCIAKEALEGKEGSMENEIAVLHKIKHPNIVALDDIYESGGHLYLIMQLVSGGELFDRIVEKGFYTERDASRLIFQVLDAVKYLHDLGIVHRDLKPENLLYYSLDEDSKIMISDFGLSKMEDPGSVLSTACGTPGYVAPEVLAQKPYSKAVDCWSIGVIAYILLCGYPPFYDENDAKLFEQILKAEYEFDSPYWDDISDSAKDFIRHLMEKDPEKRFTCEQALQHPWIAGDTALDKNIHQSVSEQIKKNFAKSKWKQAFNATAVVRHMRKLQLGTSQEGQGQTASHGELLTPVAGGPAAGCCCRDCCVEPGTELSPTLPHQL
IKKb, sequence (O14920 whole entry): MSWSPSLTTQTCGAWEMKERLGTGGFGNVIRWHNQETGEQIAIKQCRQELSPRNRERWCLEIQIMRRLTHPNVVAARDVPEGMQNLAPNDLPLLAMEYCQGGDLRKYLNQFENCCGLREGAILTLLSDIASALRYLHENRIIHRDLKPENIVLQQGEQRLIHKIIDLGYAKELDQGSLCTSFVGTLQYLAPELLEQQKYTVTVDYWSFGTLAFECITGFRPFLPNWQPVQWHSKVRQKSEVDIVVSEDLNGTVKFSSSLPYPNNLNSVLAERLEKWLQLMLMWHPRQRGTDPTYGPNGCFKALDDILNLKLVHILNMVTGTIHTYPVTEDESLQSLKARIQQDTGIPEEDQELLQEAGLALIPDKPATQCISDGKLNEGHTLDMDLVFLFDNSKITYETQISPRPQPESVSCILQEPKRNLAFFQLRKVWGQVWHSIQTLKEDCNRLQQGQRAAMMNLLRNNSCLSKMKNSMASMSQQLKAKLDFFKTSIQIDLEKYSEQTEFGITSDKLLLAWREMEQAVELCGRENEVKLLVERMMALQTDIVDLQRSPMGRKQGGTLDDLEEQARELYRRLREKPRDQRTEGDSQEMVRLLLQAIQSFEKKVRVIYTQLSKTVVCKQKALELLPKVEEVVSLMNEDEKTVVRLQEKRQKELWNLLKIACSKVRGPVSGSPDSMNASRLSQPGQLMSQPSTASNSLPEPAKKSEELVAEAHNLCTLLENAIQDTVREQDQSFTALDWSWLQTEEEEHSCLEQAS
MKK1, sequence (Q02750 whole entry): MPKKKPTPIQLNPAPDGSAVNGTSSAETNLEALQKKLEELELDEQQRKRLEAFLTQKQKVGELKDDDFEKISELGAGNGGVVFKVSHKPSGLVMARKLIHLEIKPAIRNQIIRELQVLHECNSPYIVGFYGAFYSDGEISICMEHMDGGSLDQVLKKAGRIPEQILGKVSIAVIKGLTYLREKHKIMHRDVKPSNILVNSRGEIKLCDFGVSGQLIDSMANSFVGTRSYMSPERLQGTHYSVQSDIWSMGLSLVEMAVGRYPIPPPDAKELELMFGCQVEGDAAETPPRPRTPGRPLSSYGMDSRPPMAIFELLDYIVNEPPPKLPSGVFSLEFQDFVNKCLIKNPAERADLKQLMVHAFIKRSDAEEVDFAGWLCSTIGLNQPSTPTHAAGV
PAK4, sequence (O96013 whole entry): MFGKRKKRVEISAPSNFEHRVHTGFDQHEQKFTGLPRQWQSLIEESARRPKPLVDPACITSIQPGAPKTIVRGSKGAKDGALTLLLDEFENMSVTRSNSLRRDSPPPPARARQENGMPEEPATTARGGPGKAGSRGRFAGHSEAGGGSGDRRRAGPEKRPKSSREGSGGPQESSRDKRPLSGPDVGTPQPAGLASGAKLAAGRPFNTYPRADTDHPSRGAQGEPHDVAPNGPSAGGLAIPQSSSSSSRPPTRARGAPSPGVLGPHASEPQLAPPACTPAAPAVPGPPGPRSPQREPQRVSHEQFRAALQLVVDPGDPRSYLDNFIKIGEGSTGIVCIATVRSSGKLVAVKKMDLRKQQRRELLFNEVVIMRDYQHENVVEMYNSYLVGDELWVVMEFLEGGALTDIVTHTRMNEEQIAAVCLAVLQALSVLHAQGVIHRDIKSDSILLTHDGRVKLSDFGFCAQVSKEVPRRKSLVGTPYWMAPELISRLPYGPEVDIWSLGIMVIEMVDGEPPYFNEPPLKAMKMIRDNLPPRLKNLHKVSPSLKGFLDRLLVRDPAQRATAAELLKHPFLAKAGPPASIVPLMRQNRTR
PIM1, sequence (P11309 whole entry): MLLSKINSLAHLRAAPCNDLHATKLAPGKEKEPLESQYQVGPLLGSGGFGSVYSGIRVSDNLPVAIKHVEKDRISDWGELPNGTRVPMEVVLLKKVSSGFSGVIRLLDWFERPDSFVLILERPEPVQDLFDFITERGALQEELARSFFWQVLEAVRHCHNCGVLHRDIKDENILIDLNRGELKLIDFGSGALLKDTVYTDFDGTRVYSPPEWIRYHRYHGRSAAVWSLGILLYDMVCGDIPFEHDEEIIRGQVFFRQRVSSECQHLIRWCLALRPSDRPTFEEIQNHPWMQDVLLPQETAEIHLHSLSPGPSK
YES1, sequence (P07947 whole entry): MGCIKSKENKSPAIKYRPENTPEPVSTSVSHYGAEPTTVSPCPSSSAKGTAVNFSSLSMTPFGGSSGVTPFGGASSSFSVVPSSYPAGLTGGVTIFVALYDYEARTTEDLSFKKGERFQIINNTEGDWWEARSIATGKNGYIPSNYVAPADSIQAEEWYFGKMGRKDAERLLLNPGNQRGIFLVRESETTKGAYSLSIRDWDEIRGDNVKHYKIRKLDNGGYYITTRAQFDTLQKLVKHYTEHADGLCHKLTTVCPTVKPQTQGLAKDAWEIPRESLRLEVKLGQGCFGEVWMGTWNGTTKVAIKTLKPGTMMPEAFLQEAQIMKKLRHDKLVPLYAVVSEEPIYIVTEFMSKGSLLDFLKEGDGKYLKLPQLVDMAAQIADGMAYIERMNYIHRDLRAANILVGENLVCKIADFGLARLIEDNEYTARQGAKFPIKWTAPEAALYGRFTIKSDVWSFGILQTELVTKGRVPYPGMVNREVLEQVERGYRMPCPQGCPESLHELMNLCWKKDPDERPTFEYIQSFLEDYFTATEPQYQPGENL

| SMILES | IC50 (VEGFR-2) | residual activity of VEG-FR, mean percentage activity (VEG-FR) | remaining activity at 0.1 µM (DYRK3) | remaining activity at 0.1 µM (p38g MAPK) | remaining activity at 0.1 µM (EPH A2) | remaining activity at 0.1 µM (p38a MAPK) | remaining activity at 0.1 µM (HIPK2) | remaining activity at 0.1 µM (MARK3) | remaining activity at 0.1 µM (DYRK1A) | remaining activity at 0.1 µM (PKA) | remaining activity at 0.1 µM (IKKb) | remaining activity at 0.1 µM (YES1) | remaining activity at 0.1 µM (IGF1-R) | remaining activity at 0.1 µM (p38s MAPK) | remaining activity at 0.1 µM (CSK) | remaining activity at 0.1 µM (PAK4) | remaining activity at 0.1 µM (Src) | remaining activity at 0.1 µM (PIM1) | remaining activity at 0.1 µM (PLK1) | residual activity of PHK, mean percentage activity (PHK) | other results |
| --- | --- | --- | --- | --- | --- | --- | --- | --- | --- | --- | --- | --- | --- | --- | --- | --- | --- | --- | --- | --- | --- |
| COc1cc(C2=C(c3c[nH]c4ccccc34)C(=O)NC2=O)cc(OC)c1OC [Compound 1, 3-(1H-Indol-3-yl)-4-(3,4,5-trimethoxyphenyl)-1H-pyrrole-2,5-dione] | 5 nM | 10% | 85% | 91% | 104% | 89% | 23% | 90% | 73% | 93% | 102% | 84% | 90% | 108% | 138% | 75% | 81% | 14% | 79% | 73% | remaining activity at 0.1 µM (CAMK1): 107%; remaining activity at 0.1 µM (JNK2): 78%; remaining activity at 0.1 µM (RSK2): 91%; remaining activity at 0.1 µM (MNK1): 80%; remaining activity at 0.1 µM (MSK1): 69%; remaining activity at 0.1 µM (MKK1): 54% |
| COc1cc2c3c(c4c5ccccc5[nH]c4c2c(OC)c1OC)C(=O)NC3=O [Compound 3, 5,6,7-Trimethoxybenzo[a]pyrrolo[3,4-c]carbazole-1,3(2H,8H)-dione] | 152 nM | 37% | 46% | 86% | 109% | 78% | 7% | 73% | 26% | 90% | 113% | 88% | 65% | 90% | 99% | 55% | 86% | 5% | 49% | 41% | remaining activity at 0.1 µM (CAMK1): 94%; remaining activity at 0.1 µM (JNK2): 93%; remaining activity at 0.1 µM (RSK2): 62%; remaining activity at 0.1 µM (MNK1): 79%; remaining activity at 0.1 µM (MSK1): 55%; remaining activity at 0.1 µM (MKK1): 67% |
